Series [1] is described as follows: Solubility test in artificial intestinal juice pH 6.8. The format is physicochemical. To be noted: kinetic from dmso stock, artificial intestinal juice pH 6.8, 1% DMSO, 25° C. The procedure: The solubility of a compound was determined under a condition in which 1% DMSO was added. 10 mmol/L compound solution was prepared using DMSO, and then 6 μL of the compound solution was added to 594 μL of artificial intestinal juice in pH 6.8 (to 250 mL of 0.2 mol/L potassium dihydrogen phosphate reagent solution was added 118 mL of 0.2 mol/L NaOH reagent solution and water to provide a final volume of 1000 mL). After standing at 25° C. for 16 hours, the mixed solution was filtered with suction. The filtrate was diluted twice with methanol/water (1/1), and then a concentration in the filtration was measured with HPLC or LC/MS/MS by the absolute calibration method.

Series [2] is described as follows: Metabolic stability test, pooled human liver microsome. Type of series: in vitro ADME. Conditions: 2 μmol/L compound; human liver microsome 0.5 mg protein/mL, NADPH, 37° C. The procedure:
After a subject compound was reacted for a certain time using a commercially available pooled human liver microsome, a reacted sample and an unreacted sample are compared to calculate a survival ratio, and then the degree of metabolism in the liver was evaluated.
0.2 mL of a buffer solution (50 mmol/L of Tris-HCl in pH 7.4, 150 mmol/L of potassium chloride, and 10 mmol/L of magnesium chloride) containing a human liver microsome of 0.5 mg protein/mL was reacted in the presence of 1 mmol/L NADPH at 37° C. for 0 or 30 minutes (oxidative reaction). After reacting, 50 μL of the reaction solution was added to 100 μL of a solution of methanol/acetonitrile (1/1 (v/v)), mixed, and then centrifuged at 3000 rpm for 15 minutes. The test compound in the supernatant was quantitated with LC/MS/MS. The amount of the compound at a reaction time of 0 minute was defined as 100% and, based on that, the percentage of the test compound remained after reacting for 30 minutes was calculated.

A further series concerns the target T1, CYP1A2 (Homo sapiens, UniProt P05177).
T1 construct: enzyme: pooled human liver microsome 0.2 mg protein/mL; from tissue; host or cells: pooled human liver microsomes
T1 sequence (P05177 1-516): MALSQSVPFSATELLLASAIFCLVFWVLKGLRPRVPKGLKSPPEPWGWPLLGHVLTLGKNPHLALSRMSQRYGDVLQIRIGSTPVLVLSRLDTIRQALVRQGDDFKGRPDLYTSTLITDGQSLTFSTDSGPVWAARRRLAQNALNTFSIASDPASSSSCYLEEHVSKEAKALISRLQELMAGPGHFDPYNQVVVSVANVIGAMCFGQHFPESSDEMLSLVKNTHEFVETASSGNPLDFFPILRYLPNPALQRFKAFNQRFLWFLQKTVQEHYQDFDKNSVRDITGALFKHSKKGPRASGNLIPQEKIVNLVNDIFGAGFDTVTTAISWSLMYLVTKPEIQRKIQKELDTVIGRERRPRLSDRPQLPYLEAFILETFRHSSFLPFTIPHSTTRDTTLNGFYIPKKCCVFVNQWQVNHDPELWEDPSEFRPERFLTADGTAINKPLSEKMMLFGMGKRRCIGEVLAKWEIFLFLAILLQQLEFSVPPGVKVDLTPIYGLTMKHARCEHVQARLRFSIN
The experiment in a line: CYP inhibition test, O-de-ethylation of 7-ethoxyresorufin. Conditions: pooled human liver microsome; one of 5 kinds. Type of series: in vitro ADME. An excerpt: (§1) O-de-ethylation of 7-ethoxyresorufin (CYP1A2), methyl-hydroxylation of tolbutamide (CYP2C9), 4′-hydroxylation of mephenyloin (CYP2C19), O-demethylation of dextromethorphan (CYP2D6), and hydroxylation of terfenadine (CYP3A4), which are typical substrate for metabolic reactions of human main CYP5 molecular species (CYP1A2, 2C9, 2C19, 2D6, and 3A4), were adopted as indexes.
(§2) The reaction conditions are as follows: substrate: 0.5 μmol/L of ethoxyresorufin (CYP1A2), 100 μmol/L of tolbutamide (CYP2C9), 50 μmol/L of S-mephenyloin (CYP2C19), […] of dextromethorphan (CYP2D6), and 1 μmol/L of terfenadine (CYP3A4); reaction time; 15 minutes; reaction temperature: 37° C.; enzyme: pooled human liver microsome 0.2 mg protein/mL; test drug concentration: 1, 5, 10, and 20 μmol/L (4 points).
(§3) In a 96-well plate, as a reaction solution, five kinds of substrates, a human liver microsome, and a test drug were added to 50 mmol/L Hepes buffer solution in the aforementioned ratio. A coenzyme NADPH was added to start a metabolic reaction, which is an index. After reacting at 37° C. for 15 minutes, a solution of methanol/acetonitrile (1/1 (v/v)) was added to quench the reaction. After centrifugation at 3000 rpm for 15 minutes, resorufin (CYP1A2 metabolite) in the supernatant was quantitated with a fluorescence multilabel counter, and hydroxylated tolbutamide (CYP2C9 metabolite), 4′-hydroxylated mephenyloin (CYP2C19 metabolite), […], terfenadine in alcohol form (CYP3A4 metabolite) were quantitated with LC/MS/MS.
(§4) The case wherein only DMSO (a solvent which dissolved a drug) was added to a reaction system was defined as a control (100%). When a test drug solution was added, the remaining activity (%) at each concentration was calculated, and then IC50 was calculated with a concentration and an inhibition ratio by an inverse estimation using a logistic model.

A further series deals with T2, CYP2D6 (Homo sapiens, UniProt P10635).
T2 construct: enzyme: pooled human liver microsome 0.2 mg protein/mL; from tissue; host or cells: pooled human liver microsomes
T2 sequence (P10635 whole entry): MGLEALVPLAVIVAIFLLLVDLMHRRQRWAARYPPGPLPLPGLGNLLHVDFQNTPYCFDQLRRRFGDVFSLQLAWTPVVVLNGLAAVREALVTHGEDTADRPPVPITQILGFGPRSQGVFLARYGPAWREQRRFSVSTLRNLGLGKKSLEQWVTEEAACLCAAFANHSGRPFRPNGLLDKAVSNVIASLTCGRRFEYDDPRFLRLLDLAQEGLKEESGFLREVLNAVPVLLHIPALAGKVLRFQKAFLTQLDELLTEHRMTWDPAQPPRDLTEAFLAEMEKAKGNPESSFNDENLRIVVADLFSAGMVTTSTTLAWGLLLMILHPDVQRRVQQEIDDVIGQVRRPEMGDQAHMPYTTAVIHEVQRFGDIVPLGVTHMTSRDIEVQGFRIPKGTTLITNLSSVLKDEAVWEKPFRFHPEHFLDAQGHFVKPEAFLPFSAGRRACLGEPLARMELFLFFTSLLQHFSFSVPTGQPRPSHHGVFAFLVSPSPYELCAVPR
The series is described as follows: CYP inhibition test, O-demethylation of dextromethorphan. Conditions: pooled human liver microsome; one of 5 kinds. The format is in vitro ADME.
Source text: as §1, §2, §3, §4
Background: Microsomes from liver hold many membrane-bound enzymes, among them those of drug oxidation.

The target of a further series is T3, CYP3A4 (Homo sapiens, UniProt P08684).
T3 construct: enzyme: pooled human liver microsome 0.2 mg protein/mL; from tissue; host or cells: pooled human liver microsomes
T3 sequence (P08684 whole entry): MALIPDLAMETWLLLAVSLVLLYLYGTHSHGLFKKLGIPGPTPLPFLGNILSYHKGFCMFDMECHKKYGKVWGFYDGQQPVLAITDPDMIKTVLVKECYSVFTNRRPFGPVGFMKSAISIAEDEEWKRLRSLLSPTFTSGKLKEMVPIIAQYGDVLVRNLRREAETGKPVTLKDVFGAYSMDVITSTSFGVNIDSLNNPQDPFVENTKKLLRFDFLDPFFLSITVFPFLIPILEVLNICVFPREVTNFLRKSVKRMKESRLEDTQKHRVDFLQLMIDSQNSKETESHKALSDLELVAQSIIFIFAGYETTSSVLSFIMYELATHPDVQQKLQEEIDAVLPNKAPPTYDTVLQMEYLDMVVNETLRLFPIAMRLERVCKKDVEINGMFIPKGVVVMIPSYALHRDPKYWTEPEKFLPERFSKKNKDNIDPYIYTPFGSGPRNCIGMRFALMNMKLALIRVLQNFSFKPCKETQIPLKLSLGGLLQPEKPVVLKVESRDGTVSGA
The experiment in a line: CYP inhibition test, hydroxylation of terfenadine. Type of series: in vitro ADME. To be noted: pooled human liver microsome; one of 5 kinds.
Source text: as §1, §2, §3, §4

The next series has as its target T4, CYP2C9 (Homo sapiens, UniProt P11712).
T4 construct: enzyme: pooled human liver microsome 0.2 mg protein/mL; from tissue; host or cells: pooled human liver microsomes
The series is described as follows: CYP inhibition test, methyl-hydroxylation of tolbutamide. To be noted: pooled human liver microsome; one of 5 kinds. The format is in vitro ADME.
Source text: as §1, §2, §3, §4

Another series concerns the target PI-3 kinase γ (Homo sapiens, UniProt P48736). The experiment in a line: PI3Kγ inhibitory activity, PI3-kinase HTRF assay (inhibition ratio). Type of series: biochemical. To be noted: 0.5 h, compound at 50 μmol/L. Put shortly:
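Human PI3Kγ was preincubated 10 min with compound and PIP2 substrate, then reacted 30 min at room temperature with ATP (40 μmol/L in the added solution); EDTA/biotin-PIP3 quenched. HTRF 665/620 nm ratio read after 18 h, normalized to no-compound (100%) and no-enzyme (0%) controls, gave % inhibition at 50 or 10 μmol/L compound.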

For a further series, the target named is T5, CYP2C19 (Homo sapiens, UniProt P33261).
T5 construct: enzyme: pooled human liver microsome 0.2 mg protein/mL; from tissue; host or cells: pooled human liver microsomes
T5 sequence (P33261 whole entry): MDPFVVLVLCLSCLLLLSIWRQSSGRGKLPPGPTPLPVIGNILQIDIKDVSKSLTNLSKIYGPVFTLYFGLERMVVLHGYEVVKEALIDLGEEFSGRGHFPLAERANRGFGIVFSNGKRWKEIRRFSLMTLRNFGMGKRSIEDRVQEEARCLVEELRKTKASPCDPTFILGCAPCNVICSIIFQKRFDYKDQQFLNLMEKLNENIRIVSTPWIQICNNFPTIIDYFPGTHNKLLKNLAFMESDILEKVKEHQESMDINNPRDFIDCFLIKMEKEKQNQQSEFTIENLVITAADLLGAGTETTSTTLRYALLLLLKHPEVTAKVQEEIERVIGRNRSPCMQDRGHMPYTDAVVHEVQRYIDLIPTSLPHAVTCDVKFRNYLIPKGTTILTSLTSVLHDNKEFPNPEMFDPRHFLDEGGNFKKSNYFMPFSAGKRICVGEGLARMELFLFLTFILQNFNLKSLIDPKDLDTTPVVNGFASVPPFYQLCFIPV
The experiment in a line: CYP inhibition test, 4′-hydroxylation of mephenyloin. Type of series: in vitro ADME. To be noted: pooled human liver microsome; one of 5 kinds.
Source text: as §1, §2, §3, §4

In series [3] the test system is Salmonella typhimurium TA98 line, TA100 line. The experiment in a line: Fat Test (mutagenicity in Salmonella typhimurium). Details: key: When the mutagenicity is negative, the compound is shown as (−); When positive, the compound is shown as (+). To be noted: TA98 and TA100 lines, non-metabolism-activation and metabolism-activation conditions. Type of series: cell-based. How it is done: 20 μL of Salmonella enterica subsp. typhimurium (Salmonella typhimurium TA98 line, TA100 line) cryopreserved was inoculated to 10 mL of liquid nutrient medium (2.5% Oxoid nutrient broth No. 2) and then precultured at 37° C. for 10 hours with shaking. Regarding TA98 line, after 9 mL of a bacterial suspension was centrifuged (2000×g, 10 minutes) to remove the culture solution, the bacteria was suspended in 9 mL of Micro F buffer solution (K2HPO4: 3.5 g/L, KH2PO4: 1 g/L, (NH4)2SO4: 1 g/L, tri-sodium citric acid dihydrate: 0.25 g/L, MgSO4.7H2O: 0.1 g/L), and then added to 110 mL of Exposure media (Micro F buffer solution containing biotin: 8 μg/mL, histidine: 0.2 μg/mL, glucose: 8 mg/mL). Regarding TA 100 line, 120 mL of Exposure media was added to 3.16 mL of the bacterial suspension to prepare a test bacterial suspension. 12 μL of a solution of a test substance in DMSO (diluted eight times in a common ratio of 2 from the maximum dose of 50 mg/mL); 12 μL of DMSO as a negative control; 50 μg/mL 4-nitroquinoline-1-oxide solution in DMSO for TA98 line or 0.25 μg/mL 2-(2-furyl)-3-(5-nitro-2-furyl)acrylamide solution in DMSO as a positive control for TA 100 line in the case of a non-metabolism-activation condition; 12 μL of 40 μg/mL 2-aminoanthracene solution in DMSO for TA98 line or 20 μg/mL of 2-aminoanthracene solution in DMSO for TA100 line in the case of a metabolism-activation condition; were each mixed with 588 μL of the test bacterial suspension (in the case of a metabolism activation condition, a mixed solution of 498 μL of the test bacterial suspension and 90 μL S9 mix) and then cultured at 37° C. at 90 minutes with shaking. 460 μL of the bacterial suspension to which a test substance was exposed was mixed with 2300 μL of Indicator media (a Micro F buffer solution containing 8 μg/mL biotin, 0.2 μg/mL histidine, 8 mg/mL glucose, and 37.5 μg/mL bromocresol purple). […] Thus, in 48 wells per dose, the number of the bacteria-proliferation wells in which the color changed to yellow was counted, compared with a group of negative controls, and then evaluated. […]

Series [4] has as its target T6, human ether-a-go-go related gene (hERG) channel (Homo sapiens, UniProt Q12809).
T6 construct: expressed in transfected cells; host or cells: HEK293
The experiment in a line: hERG test, whole-cell patch-clamp, IKr. To be noted: 1 μmol/L compound; HEK293 cell expressing hERG. The format is cell-based. The source says: For the purpose of risk evaluation of QT interval extension of electrocardiogram, the activity on delayed rectification K^+ current (IKr), which plays an important role in a cardiac ventricle repolarization process, was examined using the HEK293 cell that was made to express human ether-a-go-go related gene (hERG) channel.
Using an automatic patch-clamp system (PatchXpress 7000A, Axon Instruments Inc.), by a whole-cell patch-clamp method, after the cell was maintained at a membrane potential of −80 mV, IKr induced upon applying depolarizing stimulation of +50 mV for 2 seconds and further applying repolarizing stimulation of −50 mV for 2 seconds was recorded. After generated electric current became stable, a test substance dissolved at an intended concentration in extracellular fluid (137 mmol/L NaCl, 4 mmol/L KCl, 1.8 mmol/L CaCl2.2H2O, 1 mmol/L MgCl2.6H2O, 10 mmol/L glucose, 10 mmol/L HEPES (4-(2-hydroxyethyl)-1-piperazineethanesulfonic acid), pH=7.4) was applied to the cell for 10 minutes under room temperature condition. From the obtained IKr, the absolute value of the maximum tail current was measured using analysis software (DataXpress ver. 1, Molecular Devices Corporation) and the value of the electric current in a maintained membrane potential as baseline. Moreover, an inhibition ratio for the maximum tail current prior to the application of the test substance was calculated and then compared with a group of media-application (0.1% dimethylsulfoxide solution) to evaluate influence of the test substance on IKr.
On the technique in general: Block of hERG is tested as a sign of cardiac risk.

Structures are written as SMILES.

The term solubility denotes the dissolved amount per volume that the medium holds. What is called IC50 is the concentration that inhibits the measured activity by half. The term inhibition denotes the share of the control response that was lost under treatment.

Chain of PI-3 kinase γ (P48736 whole entry): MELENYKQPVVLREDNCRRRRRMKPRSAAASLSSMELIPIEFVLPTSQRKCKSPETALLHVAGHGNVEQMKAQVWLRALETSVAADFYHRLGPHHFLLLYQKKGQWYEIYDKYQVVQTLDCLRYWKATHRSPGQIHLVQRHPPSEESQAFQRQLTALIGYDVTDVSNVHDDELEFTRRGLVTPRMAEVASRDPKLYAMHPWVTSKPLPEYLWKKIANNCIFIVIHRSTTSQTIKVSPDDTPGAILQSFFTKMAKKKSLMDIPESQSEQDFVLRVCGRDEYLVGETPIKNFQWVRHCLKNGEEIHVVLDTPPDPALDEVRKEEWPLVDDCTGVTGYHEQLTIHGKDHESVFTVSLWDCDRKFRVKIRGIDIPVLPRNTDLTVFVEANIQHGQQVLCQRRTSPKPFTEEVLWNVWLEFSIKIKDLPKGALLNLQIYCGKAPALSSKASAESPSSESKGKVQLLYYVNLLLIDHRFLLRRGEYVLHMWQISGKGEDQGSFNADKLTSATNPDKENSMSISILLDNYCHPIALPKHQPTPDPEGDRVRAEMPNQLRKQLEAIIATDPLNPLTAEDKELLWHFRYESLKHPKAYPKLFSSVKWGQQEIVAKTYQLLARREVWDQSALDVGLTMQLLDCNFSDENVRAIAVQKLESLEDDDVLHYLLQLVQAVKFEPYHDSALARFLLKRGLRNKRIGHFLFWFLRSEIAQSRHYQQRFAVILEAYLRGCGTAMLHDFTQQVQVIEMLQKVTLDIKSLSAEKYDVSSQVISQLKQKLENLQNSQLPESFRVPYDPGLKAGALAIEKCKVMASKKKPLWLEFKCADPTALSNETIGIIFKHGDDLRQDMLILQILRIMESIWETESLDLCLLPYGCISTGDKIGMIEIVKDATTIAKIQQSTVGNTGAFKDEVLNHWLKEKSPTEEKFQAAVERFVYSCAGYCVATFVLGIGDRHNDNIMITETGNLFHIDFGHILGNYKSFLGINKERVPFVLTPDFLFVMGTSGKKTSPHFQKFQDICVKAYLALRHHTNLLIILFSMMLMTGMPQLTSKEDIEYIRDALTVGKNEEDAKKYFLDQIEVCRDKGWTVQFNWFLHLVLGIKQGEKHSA
T4 sequence (P11712 whole entry): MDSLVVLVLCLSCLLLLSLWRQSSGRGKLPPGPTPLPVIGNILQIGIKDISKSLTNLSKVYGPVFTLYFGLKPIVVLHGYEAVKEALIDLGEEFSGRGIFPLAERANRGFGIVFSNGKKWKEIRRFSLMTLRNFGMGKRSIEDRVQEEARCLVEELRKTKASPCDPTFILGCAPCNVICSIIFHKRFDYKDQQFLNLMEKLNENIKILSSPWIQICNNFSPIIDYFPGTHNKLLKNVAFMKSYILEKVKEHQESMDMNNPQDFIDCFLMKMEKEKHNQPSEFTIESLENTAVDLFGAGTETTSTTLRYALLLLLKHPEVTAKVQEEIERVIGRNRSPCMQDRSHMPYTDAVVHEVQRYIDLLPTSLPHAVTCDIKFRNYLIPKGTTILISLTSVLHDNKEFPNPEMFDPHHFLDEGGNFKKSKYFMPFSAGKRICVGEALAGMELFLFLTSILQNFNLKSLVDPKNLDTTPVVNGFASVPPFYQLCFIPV
T6 sequence (Q12809 whole entry): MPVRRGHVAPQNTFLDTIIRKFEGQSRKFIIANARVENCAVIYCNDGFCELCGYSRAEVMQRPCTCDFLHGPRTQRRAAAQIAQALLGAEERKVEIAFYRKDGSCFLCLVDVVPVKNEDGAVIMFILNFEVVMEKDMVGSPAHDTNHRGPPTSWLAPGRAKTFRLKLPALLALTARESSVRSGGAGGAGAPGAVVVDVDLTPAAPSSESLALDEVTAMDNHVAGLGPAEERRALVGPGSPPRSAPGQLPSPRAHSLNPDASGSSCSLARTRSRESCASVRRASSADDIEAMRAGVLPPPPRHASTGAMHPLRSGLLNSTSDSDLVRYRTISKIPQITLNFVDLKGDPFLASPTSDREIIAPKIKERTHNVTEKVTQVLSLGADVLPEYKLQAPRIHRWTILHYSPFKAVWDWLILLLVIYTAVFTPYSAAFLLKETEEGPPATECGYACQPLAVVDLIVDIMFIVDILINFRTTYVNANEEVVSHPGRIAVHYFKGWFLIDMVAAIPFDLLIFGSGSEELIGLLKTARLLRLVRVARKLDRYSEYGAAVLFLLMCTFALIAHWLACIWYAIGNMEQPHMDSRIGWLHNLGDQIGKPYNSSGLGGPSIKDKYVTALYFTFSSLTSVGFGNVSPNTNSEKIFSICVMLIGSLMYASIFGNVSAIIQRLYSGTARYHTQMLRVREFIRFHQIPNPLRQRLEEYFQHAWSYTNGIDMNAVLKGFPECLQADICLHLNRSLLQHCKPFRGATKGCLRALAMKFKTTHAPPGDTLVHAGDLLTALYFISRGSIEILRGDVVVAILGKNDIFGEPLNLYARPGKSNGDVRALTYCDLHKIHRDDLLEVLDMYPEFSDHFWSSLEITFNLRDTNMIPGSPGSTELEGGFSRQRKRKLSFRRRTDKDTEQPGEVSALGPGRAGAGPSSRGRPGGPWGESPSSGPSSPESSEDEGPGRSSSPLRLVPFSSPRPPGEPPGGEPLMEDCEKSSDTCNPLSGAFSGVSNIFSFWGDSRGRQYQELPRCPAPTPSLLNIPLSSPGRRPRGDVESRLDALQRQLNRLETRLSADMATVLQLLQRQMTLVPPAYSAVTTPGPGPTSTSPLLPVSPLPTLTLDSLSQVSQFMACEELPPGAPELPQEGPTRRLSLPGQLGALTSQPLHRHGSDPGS

Consider `CC1(C)SC(N2CCOc3cccnc32)=NC1=O` [Compound I-49], for which, in series [1], the solubility at 16 h was above 50 µM. Also, in [2], the “percentage of test compound remained after reacting for 30 minutes” value worked out at 90.1%. For the same molecule, the concentration for half-maximal inhibition (IC50) on CYP1A2, at CYP2D6, against CYP3A4, against CYP2C9 and against CYP2C19 was above 20 µM in each case. Further, at PI-3 kinase γ, the inhibition at 50 µM is at least 95%.

As for `O=C(O)c1cccc(Nc2cnc3c(c2)OCCN3C(=O)Nc2ccccc2)c1` [Compound I-138], the mutagenicity result in series [3] is “(−)”. In [1], the solubility at 16 h was above 50 µM. In [4], the “hERG inhibition ratio for the maximum tail current (IKr)” value is 11.1%.

For the molecule `CC1SC(N2CCOc3cccnc32)=NC1=O` (stereo not shown) [Compound I-1], the mutagenicity entry in series [3] is reported as “(−)”. The same molecule yielded a solubility at 16 h in [1] above 50 µM. Also, the inhibition at 50 µM at PI-3 kinase γ was determined as 87%.

`O=C(O)CNC(=O)Nc1cnc2c(c1)OCCN2C(=O)Nc1ccccc1` [Compound I-239] registered a solubility at 16 h in series [1] above 50 µM. Moreover, the “percentage of test compound remained after reacting for 30 minutes” value in series [2] is 100%. For the same molecule, the IC50 against CYP1A2, against CYP2D6, against CYP3A4, on CYP2C9 and against CYP2C19 was above 20 µM throughout. Moreover, on PI-3 kinase γ, the inhibition at 50 µM is at least 95%.

Values taken from US20110172217A1, “RING-FUSED MORPHOLINE DERIVATIVE HAVING PI3K-INHIBITING ACTIVITY” (Shionogi & Co., Ltd., priority 2008, published 2011).
